The values below come from patent US7589097B2, “Triazol[4,5-d] pyramidine derivatives and their use as purinergic receptor antagonists” (Vernalis Research Limited, priority 2001, dated 2009).

Each structure is given as a SMILES string.

The test system of series [1] is Parkinsonian patients. The following applies: cited from earlier work.
The test system of series [2] is cataleptic responses. Conditions: cited from earlier work.
For series [3], the target named is human adenosine A2A receptors (Homo sapiens, UniProt P29274). Description: Binding affinities at hA2A receptors, displacement of [3H]-CGS 21680. The source says: Adenosine Receptor Binding Binding Affinities at hA2A Receptors
Sequence of human adenosine A2A receptors (P29274 whole entry): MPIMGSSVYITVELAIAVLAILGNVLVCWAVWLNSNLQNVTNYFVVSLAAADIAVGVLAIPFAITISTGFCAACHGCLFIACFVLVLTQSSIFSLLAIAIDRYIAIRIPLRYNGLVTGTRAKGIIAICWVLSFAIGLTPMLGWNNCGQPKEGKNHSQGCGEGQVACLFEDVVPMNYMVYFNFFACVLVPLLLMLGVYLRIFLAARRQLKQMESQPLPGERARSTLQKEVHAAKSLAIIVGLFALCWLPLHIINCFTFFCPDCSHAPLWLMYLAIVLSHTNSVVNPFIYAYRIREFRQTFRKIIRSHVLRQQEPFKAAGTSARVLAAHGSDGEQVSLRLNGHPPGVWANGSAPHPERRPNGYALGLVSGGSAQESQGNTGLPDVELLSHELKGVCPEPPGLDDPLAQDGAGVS
Background: In a radioligand displacement assay an active substance lowers the binding of a labelled ligand.

`Cn1c(=O)c2[nH]cnc2n(C)c1=O` [Theophylline, theophylline]: in series [1] (15 Parkinsonian patients, up to 12 weeks, 150 mg/day oral), the “mean objective disability scores” value is reported as “significant improvements”. Moreover, the “patients reporting moderate or marked subjective improvement” value in series [1] (of 15 Parkinsonian patients, up to 12 weeks, 150 mg/day oral) is recorded as 11. Besides, the serum theophylline levels in series [1] (slow release oral preparation 150 mg/day, after one week, Parkinsonian patients) is 4.44 mg/L.
In the case of `CCCn1c(=O)c2c(nc(/C=C/c3ccc(OC)c(OC)c3)n2C)n(CCC)c1=O` [KF 17837, (E)-8-(3,4-dimethoxystyryl)-1,3-dipropyl-7-methylxanthine], in series [2] (in vivo), the “anticataleptic effects of a subthreshold dose of L-DOPA plus benserazide” value is reported as “potentiated”; the “catalepsy induced by haloperidol and reserpine” value was “reduced”. Further, in series [2] (oral administration), the “cataleptic responses induced by intracerebroventricular CGS 21680” value is reported as “significantly ameliorated”.
Turning to `Nc1nc(-c2ccco2)c2nnn(Cc3cccc(F)c3F)c2n1` [Example 57, 3-(2,3-difluorobenzyl)-7-(2-furyl)-3H-[1,2,3]triazolo[4,5-d]pyrimidine-5-amine], the melting point (in general, the temperature of the solid-liquid transition) lay in the range of 188.8 to 188.9 °C. In addition, the Ki (as a rule, the dissociation constant of the complex between target and ligand, obtained from inhibition or displacement) in series [3] turned out to be 2 nM.
Taken in the same sequence, the figures for `Nc1cccc(Cn2nnc3c(-c4ccco4)nc(N)nc32)c1` [Example 5, 3-(3-Aminobenzyl)-7-(2-furyl)-3H-[1,2,3]triazolo[4,5-d]pyrimidine-5-amine] were 259.8 to 259.9 °C and 3 nM.
Taken in the same sequence, the figures for `Nc1nc(-c2ccco2)c2nnn(Cc3ccc4c(c3)OCO4)c2n1` [Example 209, 7-(2-furyl)-3-(3,4-methylenedioxybenzyl)-3H-[1,2,3]triazolo[4,5-d]pyrimidine-5-amine] were > 250 °C (dec.) and 1 nM.
